Measurements as given in patent US10759813B2, “Neprilysin inhibitors” (THERAVANCE BIOPHARMA R&D IP, LLC, priority 2010, dated 2020).

What follows are compounds tested against human neprilysin (EC 3.4.24.11; NEP) (Homo sapiens (Human), UniProt P08473) (assay: In vitro enzyme inhibition assay at human NEP (fluorogenic peptide substrate)). Conditions: pKi values at human NEP, recombinant human NEP.
Sequence of human neprilysin (EC 3.4.24.11; NEP) (P08473 52-750): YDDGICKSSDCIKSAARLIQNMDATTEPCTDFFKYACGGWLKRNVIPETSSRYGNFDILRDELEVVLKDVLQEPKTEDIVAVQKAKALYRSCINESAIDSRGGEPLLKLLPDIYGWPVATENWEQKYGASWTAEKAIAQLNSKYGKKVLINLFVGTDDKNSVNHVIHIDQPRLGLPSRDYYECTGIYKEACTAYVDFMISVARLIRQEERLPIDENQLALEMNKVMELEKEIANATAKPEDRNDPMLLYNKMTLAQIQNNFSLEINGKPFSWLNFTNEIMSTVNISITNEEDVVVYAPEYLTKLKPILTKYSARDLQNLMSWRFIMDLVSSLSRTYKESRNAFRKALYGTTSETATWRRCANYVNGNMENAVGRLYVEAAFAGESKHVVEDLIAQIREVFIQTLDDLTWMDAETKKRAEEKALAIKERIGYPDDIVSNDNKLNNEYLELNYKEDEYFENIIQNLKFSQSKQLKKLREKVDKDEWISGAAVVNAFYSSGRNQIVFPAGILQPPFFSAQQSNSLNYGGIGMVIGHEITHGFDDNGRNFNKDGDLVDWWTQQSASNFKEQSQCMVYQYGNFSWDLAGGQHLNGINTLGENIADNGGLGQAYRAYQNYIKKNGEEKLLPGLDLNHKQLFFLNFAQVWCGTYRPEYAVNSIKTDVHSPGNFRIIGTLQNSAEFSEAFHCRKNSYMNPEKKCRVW
Assay type: biochemical
Method in brief: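 Recombinant human NEP preincubated 30 min at 37 °C with compound (10 μM down to pM), then 10 μM Mca-D-Arg-Arg-Leu-Dap-(Dnp)-OH in 50 mM HEPES pH 7.5, 100 mM NaCl, 0.01% Tween-20, 10 μM ZnSO4. Stopped after 20 min with acetic acid; fluorescence Ex320/Em405; Ki by nonlinear fit, reported as pKi.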
For `COCCN(C)C(=O)c1cc(C(=O)N[C@H](Cc2ccc(-c3ccccc3)cc2Cl)C[C@@H](O)C(=O)O)[nH]n1` [Example 20-6, (2R,4R)-5-(3-Chloro-biphenyl-4-yl)-2-hydroxy-4-({5-[(2-methoxy-ethyl)-methyl-carbamoyl]-2H-pyrazole-3-carbonyl}-amino)-pentanoic acid], the pKi was ≥9.0. For `Cn1nc(C(=O)N[C@H](Cc2ccc(-c3ccccc3)cc2)C[C@@H](O)C(=O)O)cc1C(=O)O` [Example 15-5, 5-((1R,3R)-1-Biphenyl-4-ylmethyl-3-carboxy-3-hydroxypropylcarbamoyl)-2-methyl-2H-pyrazole-3-carboxylic acid], the pKi was ≥9.0. For `CC(C)c1cc(C(=O)N[C@H](Cc2ccc(-c3cccc(Cl)c3)cc2)C[C@@H](O)C(=O)O)on1` [Example 18-10, (2R,4R)-5-(3′-Chloro-biphenyl-4-yl)-2-hydroxy-4-[(3-isopropyl-isoxazole-5-carbonyl)-amino]-pentanoic acid], the pKi was ≥9.0. `COc1ccccc1-c1cc(C(=O)N[C@H](Cc2ccc(-c3ccccc3)cc2)C[C@@H](O)C(=O)O)[nH]n1` [Example 15-79, (2R,4R)-5-Biphenyl-4-yl-2-hydroxy-4-{[5-(2-methoxy-phenyl)-2H-pyrazole-3-carbonyl]-amino}-pentanoic acid] was tested, and the pKi was ≥9.0. With `O=C(N[C@H](Cc1ccc(-c2ccccc2)cc1)CC(O)C(=O)O)c1cc(C(=O)O)n(Cc2c(F)cc(Cl)cc2F)n1` (stereo partly drawn) [Example 15-8, 5-((R)-1-Biphenyl-4-ylmethyl-3-carboxy-3-hydroxy-propylcarbamoyl)-2-(4-chloro-2,6-difluorobenzyl)-2H-pyrazole-3-carboxylic acid] the Ki was 1.26 to 10 nM. Work on `O=C(N[C@H](Cc1ccc(-c2ccccc2)cc1)CC(O)C(=O)O)c1cc(C(=O)O)n(Cc2cc(F)cc(Cl)c2)n1` (stereo partly drawn) [Example 15-11, 5-((R)-1-Biphenyl-4-ylmethyl-3-carboxy-3-hydroxy-propylcarbamoyl)-2-(3-chloro-5-fluorobenzyl)-2H-pyrazole-3-carboxylic acid] yielded a Ki of 1.26 to 10 nM. With `O=C(N[C@H](Cc1ccc(-c2ccccc2)cc1Cl)C[C@@H](O)C(=O)O)c1nn(-c2cccc(Cl)c2)c(=O)[nH]1` [Example 20-3, (2R,4R)-5-(3-Chloro-biphenyl-4-yl)-4-{[1-(3-chloro-phenyl)-5-oxo-4,5-dihydro-1H-[1,2,4]triazole-3-carbonyl]-amino}-2-hydroxy-pentanoic acid] the pKi was ≥9.0. Compound `O=C(O)CCn1nc(C(=O)N[C@H](Cc2ccc(-c3ccccc3)cc2)C[C@@H](O)C(=O)O)cc1-c1ccccc1` [Example 15-36, (2R,4R)-5-Biphenyl-4-yl-4-{[1-(2-carboxy-ethyl)-5-phenyl-1H-pyrazole-3-carbonyl]-amino}-2-hydroxy-pentanoic acid] has a Ki of 1.26 to 10 nM. With `O=C(N[C@H](Cc1ccc(-c2ccccc2)cc1)C[C@@H](O)C(=O)O)c1cc(-c2ccccc2O)[nH]n1` [Example 15-28, (2R,4R)-5-Biphenyl-4-yl-2-hydroxy-4-{[5-(2-hydroxy-phenyl)-1H-pyrazole-3-carbonyl]-amino}-pentanoic acid] the pKi was ≥9.0. `O=C(O)c1ccc(C(=O)N[C@H](Cc2ccc(-c3ccccc3)cc2)CC(O)C(=O)O)o1` (stereo partly drawn) [Example 12-1, 5-((R)-1-Biphenyl-4-ylmethyl-3-carboxy-3-hydroxypropylcarbamoyl)furan-2-carboxylic acid] gave a Ki of 1.26 to 10 nM. `COCc1cc(C(=O)N[C@H](Cc2ccc(-c3cccc(Cl)c3)cc2Cl)C[C@@H](O)C(=O)O)[nH]n1` [Example 21-2, (2R,4R)-5-(3,3′-Dichloro-biphenyl-4-yl)-2-hydroxy-4-[(5-methoxymethyl-2H-pyrazole-3-carbonyl)-amino]-pentanoic acid] was tested, and the pKi was ≥9.0. `COc1ccccc1-c1cc(C(=O)N[C@H](Cc2ccc(-c3ccccc3)cc2)C[C@@H](O)C(=O)O)no1` [Example 12-15, (2R,4R)-5-Biphenyl-4-yl-2-hydroxy-4-{[5-(2-methoxy-phenyl)-isoxazole-3-carbonyl]-amino}-pentanoic acid] gave a Ki of 1.26 to 10 nM. `O=C(N[C@H](Cc1ccc(-c2ccccc2)cc1)C[C@@H](O)C(=O)O)c1cc(-c2ccc(Cl)cc2)on1` [Example 12-17, (2R,4R)-5-Biphenyl-4-yl-4-{[5-(4-chlorophenyl)-isoxazole-3-carbonyl]-amino}-2-hydroxy-pentanoic acid] gave a Ki of 1.26 to 10 nM. Compound `O=C(NCCc1cnc[nH]1)c1cc(C(=O)N[C@H](Cc2ccc(-c3ccccc3)cc2)C[C@@H](O)C(=O)O)[nH]n1` [Example 15-69, (2R,4R)-5-Biphenyl-4-yl-2-hydroxy-4-({5-[2-(3H-imidazol-4-yl)-ethylcarbamoyl]-2H-pyrazole-3-carbonyl}amino)pentanoic acid] has a Ki of 12.6 to 100 nM. `Cc1cc(C(=O)N[C@H](Cc2ccc(-c3ccccc3)cc2)CC(O)C(=O)O)cc2[nH]nnc12` (stereo partly drawn) [Example 11-6, (R)-5-Biphenyl-4-yl-2-hydroxy-4-[(7-methyl-3H-benzotriazole-5-carbonyl)amino]pentanoic acid] showed a Ki of 1.26 to 10 nM. Work on `Cc1nc2ccc(C(=O)N[C@H](Cc3ccc(-c4ccccc4)cc3)CC(O)C(=O)O)cc2o1` (stereo partly drawn) [Example 11-8, (R)-5-Biphenyl-4-yl-2-hydroxy-4-[(2-methyl-benzooxazole-6-carbonyl)-amino]-pentanoic acid] yielded a Ki of 12.6 to 100 nM. For `CCCNC(=O)c1cc(C(=O)N[C@H](Cc2ccc(-c3ccccc3)cc2)CC(O)C(=O)O)[nH]n1` (stereo partly drawn) [Example 15-61, (R)-5-Biphenyl-4-yl-2-hydroxy-4-[(5-propylcarbamoyl-2H-pyrazole-3-carbonyl)-amino]pentanoic acid], the Ki was ≤ 1 nM. Compound `CCCc1cc(C(=O)N[C@H](Cc2ccc(-c3ccccc3)cc2)CC(O)C(=O)O)[nH]n1` (stereo partly drawn) [Example 15-74, (R)-5-Biphenyl-4-yl-2-hydroxy-4-[(5-propyl-2H-pyrazole-3-carbonyl)amino]-pentanoic acid] has a Ki of 12.6 to 100 nM. With `O=C(N[C@H](Cc1ccc(-c2ccccc2)cc1)C[C@@H](O)C(=O)O)c1cc(C(=O)N2CCC2)n[nH]1` [Example 4-B, (2R,4R)-4-{[5-(Azetidine-1-carbonyl)-2H-pyrazole-3-carbonyl]amino}-5-biphenyl-4-yl-2-hydroxy-pentanoic acid] the pKi was ≥9.0. With `O=C(N[C@H](Cc1ccc(-c2ccccc2)cc1)C[C@@H](O)C(=O)O)c1cc(-c2ccccc2F)no1` [Example 12-9, (2R,4R)-5-Biphenyl-4-yl-4-{[3-(2-fluorophenyl)-isoxazole-5-carbonyl]-amino}-2-hydroxy-pentanoic acid] the pKi was ≥9.0. Compound `O=C(N[C@H](Cc1ccc(-c2ccccc2)cc1)C[C@@H](O)C(=O)O)c1nc(Cl)n[nH]1` [Example 10-12, (2R,4R)-5-Biphenyl-4-yl-4-[(5-chloro-2H-[1,2,4]triazole-3-carbonyl)amino]-2-hydroxypentanoic acid] has a Ki of 1.26 to 10 nM. For `CCCCc1cc(C(=O)N[C@H](Cc2ccc(-c3ccccc3)cc2)C[C@@H](O)C(=O)O)[nH]n1` [Example 15-112, (2R,4R)-5-Biphenyl-4-yl-4-[(5-butyl-2H-pyrazole-3-carbonyl)-amino]-2-hydroxy-pentanoic acid], the Ki was 1.26 to 10 nM. Work on `O=C(NC1CC1)c1cc(C(=O)N[C@H](Cc2ccc(-c3ccccc3)cc2)C[C@H](O)C(=O)O)[nH]n1` [Example 15-55, (2S,4R)-5-Biphenyl-4-yl-4-[(5-cyclopropylcarbamoyl-2H-pyrazole-3-carbonyl)-amino]-2-hydroxypentanoic acid] yielded a Ki of 12.6 to 100 nM. For `O=C(N[C@H](Cc1ccc(-c2ccccc2)cc1)C[C@@H](O)C(=O)O)c1cc(C(=O)O)[nH]n1` [Example 2-D, 5-((1R,3R)-1-Biphenyl-4-ylmethyl-3-carboxy-3-hydroxypropylcarbamoyl)-2H-pyrazole-3-carboxylic Acid], the pKi was ≥9.0. Compound `CC(C)(c1ccc(-c2ccccc2)cc1)[C@H](C[C@@H](O)C(=O)O)NC(=O)c1c[nH]nn1` [Example 25-1, (2R,4S)-5-Biphenyl-4-yl-2-hydroxy-5-methyl-4-[(1H-[1,2,3]triazole-4-carbonyl)-amino]-hexanoic acid] has a Ki of 12.6 to 100 nM. In the case of `O=C(N[C@H](Cc1ccc(-c2cccc(Cl)c2)cc1)C[C@@H](O)C(=O)O)c1cc(=O)n(-c2ccccc2)[nH]1` [Example 18-41, (2R,4R)-5-(3′-Chlorobiphenyl-4-yl)-2-hydroxy-4-[(5-oxo-1-phenyl-2,5-dihydro-1H-pyrazole-3-carbonyl)-amino]-pentanoic acid], the pKi is reported as ≥9.0. For `O=C(N[C@H](Cc1ccc(-c2ccccc2)cc1)C[C@@H](O)C(=O)O)c1cc(-c2cccc(F)c2)no1` [Example 12-8, (2R,4R)-5-Biphenyl-4-yl-4-{[3-(3-fluorophenyl)-isoxazole-5-carbonyl]-amino}-2-hydroxy-pentanoic acid], the pKi was ≥9.0. With `COc1cc(C(=O)N[C@H](Cc2ccc(-c3cc(Cl)ccc3F)cc2)C[C@@H](O)C(=O)O)on1` [Example 19-19, (2R,4R)-5-(5′-Chloro-2′-fluoro-biphenyl-4-yl)-2-hydroxy-4-[(3-methoxy-isoxazole-5-carbonyl)-amino]-pentanoic acid] the pKi was ≥9.0. `O=C(N[C@H](Cc1ccc(-c2ccccc2)cc1)CC(O)C(=O)O)c1cc[nH]n1` (stereo partly drawn) [Example 15-1, (R)-5-Biphenyl-4-yl-2-hydroxy-4-[(1H-pyrazole-3-carbonyl)amino]pentanoic acid] was tested, and the Ki was 12.6 to 100 nM. For `O=C(N[C@H](Cc1ccc(-c2ccccc2)cc1)C[C@@H](O)C(=O)O)c1cc2n(n1)CCCOc1ccccc1-2` [Example 16-3, (2R,4R)-5-Biphenyl-4-yl-2-hydroxy-4-[(10-oxa-5,6-diaza-tricyclo[9.4.0.02,6]pentadeca-1(15),2,4,11,13-pentaene-4-carbonyl)-amino]-pentanoic acid], the Ki was 1.26 to 10 nM. For `O=C(N[C@H](Cc1ccc(-c2ccccc2)cc1)C[C@@H](O)C(=O)O)c1cc(-c2ccccc2Cl)no1` [Example 12-6, (2R,4R)-5-Biphenyl-4-yl-4-{[3-(2-chlorophenyl)-isoxazole-5-carbonyl]-amino}-2-hydroxy-pentanoic acid], the pKi was ≥9.0.
